Bounds are passed on as bounds.

One assay relates to STAT3. The assay is described as follows: STAT3 reporter gene assay (luciferase), LNCaP stable cell line pSTAT3-TA-luc, IL-6 stimulation. The class given is cell-based, human. The settings on record: Homo sapiens. How it is done:
1-1) Experiment on the Inhibition of STAT3 Activity
A human prostate cancer cell line (LNCaP stable cell line; plasmid pSTAT3-TA-luc), which contains a stably operating STAT3 promoter, was cultured in RPMI1640 medium (Cat No. 11875, Life Technologies) containing 10% fetal bovine serum (FBS) (Cat No. SH30396, Thermo Scientific) and 150 μg/mL G-418 solution (Cat No. 04 727 894 001, Roche). The reporter gene assay using LNCaP stable cell line was performed in RPMI1640 medium containing 3% DCC-FBS without G-418 solution. LNCaP stable cells were plated in two (2) white 96-well plates with 30,000 cells/50 μL in each well. The cells were cultured at 37° C., under 5% CO2 for 24 hours, and then treated with the compounds listed in Examples which were diluted in various concentrations. Subsequently, IL-6 was added to each well with a final concentration of 10 ng/mL. Upon completion of the treatment with the compounds and IL-6, the cells were cultured at 37° C., under 5% CO2 for 24 hours. The plates were observed under microscope and drug precipitation and particular findings were investigated and recorded.
(§1) The luciferase assay and the cell viability assay were performed respectively with one of the two plates. For the luciferase assay, the liquid media in the 96-well plate was removed, and then, 20 μL, of passive cell lysis buffer was added to each well. After shaking the plate for 30 minutes, luciferase activities of each well were measured in a PHERAstar™ microplate reader (BMG LABTECH) using a luciferase assay system (Cat No. E1501, Promega). For the cell viability assay, the 96-well plate was placed at room temperature for 30 minutes, added with 20 μL/well of CellTiter-Glo solution (Cat No. G7573, Promega), and shaken for 10 minutes in order to measure cytotoxicity caused by the compounds listed in Examples with a PHERAstar™ microplate reader (BMG LABTECH). Wells without 0.1% DMSO and stimulation were used as a negative control and wells with 0.1% DMSO and stimulation were used as a positive control.
(§2) The results of evaluation on the inhibitory effect of the compounds listed in the Examples on the dimerization of STAT3 and STAT1 obtained via the STAT3 and STAT1 reporter gene assays are shown in Table 9 below.
Background: A reporter such as luciferase makes a cellular process visible.

For another assay, the system named is STAT1. Briefly: STAT1 reporter gene assay (luciferase), U2OS stable cell line pGL4-STAT1-TA-luc, IFN-γ stimulation. Type of assay: cell-based, human. The conditions noted are these: Homo sapiens, IFN-γ 50 ng/mL, 8 hours, read-out: IC50 (μM) pSTAT1. Here is the method: 1-2) Experiment on the Inhibition of STAT1 Activity
A human osteosarcoma cell line (U2OS stable cell line; pGL4-STAT1-TA-luc), which contains a stably operating STAT1 promoter, was cultured in McCoy 5′A medium (Cat No. 16600, Life Technologies) containing 10% FBS (Cat No. SH30396, Thermo Scientific) and 1000 μg/mL G418 solution (Cat No. 04 727 894 001, Roche). The reporter gene assay using U2OS stable cell line was performed in McCoy 5′A medium containing 10% FBS without G-418 solution. U2OS stable cells were plated in two (2) white 96-well plates with 25,000 cells/50 pt in each well. The cells were cultured at 37° C., under 5% CO2 for 24 hours, and then treated with the compounds listed in Examples which were diluted in various concentrations. Subsequently, IFN-γ was added to each well with a final concentration of 50 ng/mL. Upon completion of the treatment with the compounds and IFN-γ, the cells were cultured at 37° C., under 5% CO2 for 8 hours. The plates were observed under microscope and drug precipitation and particular findings were investigated and recorded.
as §1, with “of” for “of the”, “μL” for “μL,”
as §2

In general, IC50 refers to the concentration needed to halve the response being measured. Take `CC(C)(c1cc(Cl)cc(NC(=O)c2cc3cc(C(C)(C)S(C)(=O)=O)ccc3s2)c1)c1cc(OCCN2CCOCC2)cc(OC(F)(F)F)c1` [Example 8, N-(3-chloro-5-(2-(3-(2-morpholinoethoxy)-5-(trifluoromethoxy)phenyl)propan-2-yl)phenyl)-5-(2-(methylsulfonyl)propan-2-yl)benzo[b]thiophene-2-carboxamide]: the values for the IC50 with STAT3 and in the assay with STAT1 were 0.061 µM and more than 50 µM, respectively.
In the same order, the values of `CC(C)c1ccc(C(C)(C)c2cc(Cl)cc(NC(=O)c3cc4cc(C(C)(C)S(C)(=O)=O)ccc4s3)c2)s1` [Example 28, N-(3-chloro-5-(2-(5-isopropylthiophen-2-yl)propan-2-yl)phenyl)-5-(2-(methylsulfonyl)propan-2-yl)benzo[b]thiophene-2-carboxamide] are 0.0085 µM and more than 50 µM.
Regarding `CC(C)(c1ccc(Cl)cc1)c1cc(Cl)cc(NC(=O)c2cc3cc(C(C)(C)S(C)(=O)=O)ncc3s2)c1` [Example 26, N-(3-chloro-5-(2-(4-chlorophenyl)propan-2-yl)phenyl)-5-(2-(methylsulfonyl)propan-2-yl)thieno[2,3-c]pyridine-2-carboxamide], the figures for the IC50 with STAT3 and in the assay with STAT1 were 0.065 µM and more than 50 µM, respectively.
The corresponding values for `CC(C)(c1ccc2cc(C(=O)Nc3cc(Cl)cc(Oc4ccc(Cl)cc4)c3)[nH]c2c1)S(C)(=O)=O` [Example 40, N-(3-chloro-5-(4-chlorophenoxy)phenyl)-6-(2-(methylsulfonyl)propan-2-yl)-1H-indole-2-carboxamide] are 0.21 µM and more than 50 µM.
In the same order, the values of `CC(C)(c1ccc2sc(C(=O)Nc3cc(Cl)nc(OC4CCN5CCCC5C4)c3)cc2c1)S(C)(=O)=O` (stereo not drawn) [Example 102, N-(2-chloro-6-((octahydroindolizin-7-yl)oxy)pyridin-4-yl)-5-(2-(methylsulfonyl)propan-2-yl)benzo[b]thiophene-2-carboxamide] are 2.1 µM and 14.5 µM.
`CC(C)(c1cc(Br)cc(NC(=O)c2cc3cc(C(C)(C)S(C)(=O)=O)ccc3s2)c1)c1cc(OC(F)(F)F)cc(OC(F)(F)C(F)F)c1` [Example 4, N-(3-bromo-5-(2-(3-(1,1,2,2-tetrafluoroethoxy)-5-(trifluoromethoxy)phenyl)propan-2-yl)phenyl)-5-(2-(methylsulfonyl)propan-2-yl)benzo[b]thiophene-2-carboxamide]: the IC50 in the assay with STAT3 was 0.0091 µM; in the assay with STAT1, more than 50 µM.
On to `COc1cc(NC(=O)c2cc3cc(C(C)(C)S(C)(=O)=O)ccc3s2)cc(C(C)(C)c2cc(OC)cc(OC(F)(F)F)c2)c1` [Example 6, N-(3-methoxy-5-(2-(3-methoxy-5-(trifluoromethoxy)phenyl)propan-2-yl)phenyl)-5-(2-(methylsulfonyl)propan-2-yl)benzo[b]thiophene-2-carboxamide], for which the values for the IC50 in the assay on STAT3 and in the assay with STAT1 were 0.019 µM and more than 50 µM, respectively.
In the case of `CC#Cc1cc(OC(F)(F)F)cc(C(C)(C)c2cc(Cl)cc(NC(=O)c3cc4cc(C(C)(C)S(C)(=O)=O)ccc4s3)c2)c1` [Example 87, N-(3-chloro-5-(2-(3-(prop-1-yn-1-yl)-5-(trifluoromethoxy)phenyl)propan-2-yl)phenyl)-5-(2-(methylsulfonyl)propan-2-yl)benzo[b]thiophene-2-carboxamide], the IC50 with STAT3 is 0.0097 µM; with STAT1 it was more than 50 µM.
The corresponding values for `CC(C)(c1ccc2sc(C(=O)Nc3cc(Oc4ccc(Cl)cc4)nc(Cl)n3)cc2c1)S(C)(=O)=O` [Example 75, N-(2-chloro-6-(4-chlorophenoxy)pyrimidin-4-yl)-5-(2-(methylsulfonyl)propan-2-yl)benzo[b]thiophene-2-carboxamide] are 0.24 µM and more than 50 µM.
For `CC(C)(c1ccc2sc(C(=O)Nc3cc(Cl)cc(Oc4ccc(Cl)nc4)c3)cc2c1)S(C)(=O)=O` [Example 60, N-(3-chloro-5-((6-chloropyridin-3-yl)oxy)phenyl)-5-(2-(methylsulfonyl)propan-2-yl)benzo[b]thiophene-2-carboxamide], the IC50 with STAT3 was 0.12 µM; in the assay with STAT1 it was more than 50 µM.
In the case of `CCCOc1cc(OC(F)(F)F)cc(C(C)(C)c2cc(Cl)cc(NC(=O)c3cc4cc(C(C)(C)S(C)(=O)=O)ccc4s3)c2)c1` [Example 2, N-(3-chloro-5-(2-(3-propoxy-5-(trifluoromethoxy)phenyl)propan-2-yl)phenyl)-5-(2-(methylsulfonyl)propan-2-yl)benzo[b]thiophene-2-carboxamide], the IC50 in the assay with STAT3 is 0.008 µM; in the assay with STAT1 it was more than 50 µM.
Turning to `COc1cc(OC(F)(F)F)cc(C(C)(C)c2cc(NC(=O)c3cc4cc(C(C)(C)S(C)(=O)=O)ccc4s3)cc(Cl)n2)c1` [Example 90, N-(2-chloro-6-(2-(3-methoxy-5-(trifluoromethoxy)phenyl)propan-2-yl)pyridin-4-yl)-5-(2-(methylsulfonyl)propan-2-yl)benzo[b]thiophene-2-carboxamide], the IC50 with STAT3 was 0.011 µM; in the assay on STAT1, more than 50 µM.
In the same order, the values of `COc1sccc1C(C)(C)c1cc(Cl)cc(NC(=O)c2cc3cc(C(C)(C)S(C)(=O)=O)ccc3s2)c1` [Example 30, N-(3-chloro-5-(2-(2-methoxythiophen-3-yl)propan-2-yl)phenyl)-5-(2-(methylsulfonyl)propan-2-yl)benzo[b]thiophene-2-carboxamide] are 0.0013 µM and more than 50 µM.
For the molecule `COc1cc(OC(F)(F)F)cc(C(C)(C)c2cccc(NC(=O)c3cc4cc(C(C)(C)S(C)(=O)=O)ccc4s3)c2)c1` [Example 3, N-(3-(2-(3-methoxy-5-(trifluoromethoxy)phenyl)propan-2-yl)phenyl)-5-(2-(methylsulfonyl)propan-2-yl)benzo[b]thiophene-2-carboxamide], the IC50 in the assay on STAT3 was 0.0098 µM; in the assay on STAT1, more than 50 µM.
As for `CC(C)(c1cc(Cl)cc(NC(=O)c2cc3cc(C(C)(C)S(C)(=O)=O)ccc3s2)c1)c1cc(OC(F)(F)F)cc(OC(F)(F)C(F)F)c1` [Example 5, N-(3-chloro-5-(2-(3-(1,1,2,2-tetrafluoroethoxy)-5-(trifluoromethoxy)phenyl)propan-2-yl)phenyl)-5-(2-(methylsulfonyl)propan-2-yl)benzo[b]thiophene-2-carboxamide], the IC50 with STAT3 was 0.028 µM; in the assay with STAT1, more than 50 µM.
With `CC(C)(c1ccc2sc(C(=O)Nc3cc(Cl)nc(Oc4ccc(Cl)cn4)c3)cc2c1)S(C)(=O)=O` [Example 85, N-(2-chloro-6-((5-chloropyridin-2-yl)oxy)pyridin-4-yl)-5-(2-(methylsulfonyl)propan-2-yl)benzo[b]thiophene-2-carboxamide], the results for the IC50 in the assay with STAT3 and in the assay on STAT1 were 0.11 µM and more than 50 µM, respectively.
Turning to `CC(C)(c1ccc2sc(C(=O)Nc3cc(Cl)cc(Oc4ccc(Cl)cn4)c3)cc2c1)S(C)(=O)=O` [Example 61, N-(3-chloro-5-((5-chloropyridin-2-yl)oxy)phenyl)-5-(2-(methylsulfonyl)propan-2-yl)benzo[b]thiophene-2-carboxamide], the values for the IC50 with STAT3 and in the assay with STAT1 were 0.08 µM and more than 50 µM, respectively.
Turning to `COC(=O)c1cc(Oc2cc(NC(=O)c3cc4cc(C(C)(C)S(C)(=O)=O)ccc4s3)cc(Cl)n2)no1` [Example 118, methyl 3-((6-chloro-4-(5-(2-(methylsulfonyl)propan-2-yl)benzo[b]thiophene-2-carboxamido)pyridin-2-yl)oxy)isoxazole-5-carboxylate], the IC50 came out at 6 µM in the assay with STAT3 and 8.6 µM with STAT1.

The record behind these values is patent US10023591B2, “Heterocyclic derivatives and use thereof” (C&C RESEARCH LABORATORIES, priority 2014, dated 2018).
